# Assay results published in PMC10454726 (International Journal of Molecular Sciences, 2023).
# How the values were obtained:
# [1] = test system: streptozotocin-induced diabetic rats; experiment: Oral glucose tolerance test in streptozotocin-induced diabetic rats; format: in vivo, Wistar rat; design: AUC of the OGTT: unit not given here; conditions: for glucose blood levels in OGTT compared to untreated animals: after 14 days of administration, ANOVA/Bonferroni
# Procedure: (§1) After a week of acclimation, 35 male Wistar rats were given a single intraperitoneal dose of STZ (Sigma Chemical Co. Toluca, Estado de México, Mexico) at a dosage of 45 mg/kg of body weight, after fasting for 12 h overnight with free access to water. To prevent initial drug-induced hypoglycemia mortality, these animals were given a 10% sucrose solution 24 h after administration. STZ was dissolved in 0.1 M of sodium citrate buffer (pH 4.5) and administered in a final volume of 5 mL/kg. A week after STZ injection, diabetes in streptozotocin rats was confirmed by measuring fasting blood glucose (by glucose oxidase method). Animals with a blood glucose (tail vein) above 126 mg/dL were considered diabetic and used for the experiment to create groups 2, 3, 4, 5, 6, and 7 [1, 13]. Blood glucose levels were measured using a glucometer (Accu-Chek Active, Roche, Mannheim, Germany) and reactive strips (Accu-Chek Active Glucose test strips, Roche). The presence of hyperglycemia and insulin level confirmed a model very similar to T2D in humans. For the pharmacological study, the final number of animals was 35 male rats, with 3 rats being sacrificed during the treatment stage. One was administered with FC-114 and two with acarbose. The first rat was damaged during oral glucose administration in the OGTT at week 5, and the other rats had gastrointestinal complications in week 7.
# (§2) The diabetic animals in group 2 (untreated) were given 4% v/v aqueous EtOH solution (vehicle of treatments) in a volume of 6.5 mL/kg body weight. The other groups (3–7) received different treatments for 14 days (weeks 5 to 7). […] All of the treatments were at equimolar doses of PIO and adjusted to the weekly weight of each rat. […] The commercial PIO tablet (30 mg) was crushed in 7.5 mL of vehicle and given to each animal in 4.0 mg/mL of suspension. The FC-114 and FC-122 suspensions were created at 6.2 and 6.0 mg/mL, respectively. The commercial acarbose tablet (50 mg) was crushed in 7.5 mL of the vehicle and given to each animal in a suspension of 6.6 mg/mL. Each suspension was used within 2 days of its preparation, and the administration volume was near to 2.5 mL for each rat.
# The OGTT was carried out in weeks 3, 4, 5, 6, and 7. Prior to the OGTT, all animal groups fasted overnight for eight hours with free access to water. Each rat was weighed and then received a 2 g/kg glucose overload orally and blood samples were taken from the tail vein [13, 97]. Glucose levels were measured using a glucometer (Accu-Chek Active, Roche, Mannheim, Germany) at 0, 30, 60, 90, 120, and 180 min after glucose administration. The AUC of the OGTT was calculated using the blood glucose concentration over time and the GraphPad Prism 8.0.1 software package (GraphPad Software; Science Inc., San Diego, CA, USA) was used to compare the effectiveness of the treatments.
# [2] = test system: streptozotocin-induced diabetic rats; experiment: Weekly fasting glucose in streptozotocin-induced diabetic rats; format: in vivo, Wistar rat; conditions: after 7 and 14 days of treatment (weeks 6 and 7)
# Procedure: as §1, §2
# [3] = molecular target: α-glucosidase from Rominococcus obeum (Blautia obeum, UniProt A5ZY13); experiment: Enzymatic kinetics of α-glucosidase inhibition (pNPG substrate); format: biochemical
# Sequence of α-glucosidase from Rominococcus obeum (A5ZY13 entry or part of it): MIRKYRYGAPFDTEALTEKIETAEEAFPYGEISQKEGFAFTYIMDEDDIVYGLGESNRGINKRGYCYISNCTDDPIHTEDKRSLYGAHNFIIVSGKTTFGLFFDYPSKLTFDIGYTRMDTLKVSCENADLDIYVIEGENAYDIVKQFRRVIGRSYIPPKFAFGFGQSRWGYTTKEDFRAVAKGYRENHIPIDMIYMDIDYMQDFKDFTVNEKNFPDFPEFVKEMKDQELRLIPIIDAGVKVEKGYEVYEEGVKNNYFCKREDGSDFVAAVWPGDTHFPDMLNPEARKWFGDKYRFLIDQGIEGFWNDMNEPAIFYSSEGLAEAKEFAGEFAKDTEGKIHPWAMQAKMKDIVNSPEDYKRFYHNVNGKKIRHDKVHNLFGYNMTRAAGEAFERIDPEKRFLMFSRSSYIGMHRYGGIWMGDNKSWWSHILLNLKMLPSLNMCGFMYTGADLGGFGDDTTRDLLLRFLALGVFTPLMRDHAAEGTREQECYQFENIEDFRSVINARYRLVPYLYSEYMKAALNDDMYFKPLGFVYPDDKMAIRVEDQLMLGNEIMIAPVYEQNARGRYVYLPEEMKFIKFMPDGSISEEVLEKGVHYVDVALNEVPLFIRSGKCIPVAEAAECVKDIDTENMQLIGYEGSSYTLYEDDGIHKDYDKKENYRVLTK
# Procedure: The kinetic studies for PTP1B and α-glucosidase were carried out under the same conditions described in the references.
# [4] = cited from earlier work
# humans = conditions: cited from earlier work
# [5] = test system: streptozotocin-induced diabetic rats; experiment: Animal weight, food and water consumption in streptozotocin-induced diabetic rats; format: in vivo, Wistar rat; conditions: 14 days of treatment, weeks 5 to 7
# Procedure: Six female (three for each compound: FC-114 and FC-122) (220 ± 10 g, for the acute toxicity assay) and forty male (215 ± 20 g, for the pharmacologic study) albino Wistar rats were acquired from the Isolation and Animal Facility Unit, Facultad de Estudios Superiores Cuautitlán (FESC), Universidad Nacional Autónoma de México (UNAM). They were kept in standard polypropylene boxes under controlled temperature (24 ± 4 °C) on a 12 h light/dark cycle and provided conventional food (formula 5001, Rat Chow) and purified water ad libitum. […] At the end of the experiment, the animals were taken to the humanitarian endpoint by the intraperitoneal (ip) administration of 75 mg/kg of sodium pentobarbital to perform a necropsy in the bioterium of FESC, UNAM. During the necropsy, blood serum was extracted to quantify glucose, triacylglycerides, cholesterol, and insulin. The study was conducted based on the guidelines of the Declaration of Helsinki and approved by the Institutional Review Board: Internal Committee for the Care and Use of Experimentation Animals (CICUAE, according to the initials in Spanish, C23_02 on March 2023) of the FESC UNAM (Mexico). It complies with the Mexican norm for this matter (NOM-062-ZOO-1999, Technical Specifications for the Production, Care, and Use of Laboratory Animals, SAGARPA), as well as the Guide for the Care and Use of Laboratory Animals of the National Research Council and National Institutes of Health (NIH Publications No. 8023, revised 1978).
# as §1, §2
# [6] = Cytotoxic effect on Human Foreskin fibroblasts (SRB); format: cell-based; conditions: HFF-1 human foreskin fibroblasts, HFF-1 cells
# Procedure: However, at high concentrations, they can be harmful to cells. For humans, doses less than 100 mg/day are considered safe. […] Therefore, we conducted cytotoxicity assays on Human Foreskin fibroblasts (HFF-1) and an AOT on female Wistar rats to assess their safety.
# In a 96-well plate, 7000 cells per well of Human Foreskin fibroblasts (HFF-1) were cultured. […] Untreated cells were also included as a negative control. At the end of the incubation period, the cell contents were precipitated with 50 µL of a 50% aqueous solution of trichloroacetic acid (TCA) at 4 °C for 1 h. The supernatant was discarded and washed 5 times with distilled water. Afterward, the plates were allowed to dry at room temperature. The cell contents were incubated with 100 µL of a 0.04% sulforhodamine B (SRB) solution for 1 h at room temperature. The excess SRB was removed by washing with a 1% aqueous acetic acid solution. […] With the data obtained, the viability of treated cells was calculated by comparing the control without treatment. CC50 value was determined by employing BioStat Pro 5.9.8 software (AnalystSoft Inc., Brandon, FL, USA).
# [7] = cited from earlier work; remark: listed apart in the source
# [8] = test system: streptozotocin-induced diabetic rats; conditions: cited from earlier work
# [9] = Week 5 (day 1 of treatment), oral, glibenclamide 0.6, FC-114 51.3, FC-122 49.1, PIO 30, acarbose 54.3 mg/kg/day
# [10] = Week 6 (day 7 of treatment), same doses
# [11] = Week 7 (day 14 of treatment), same doses
SMILES,"AUC of the OGTT [1, 9]","AUC of the OGTT [1, 10]","AUC of the OGTT [1, 11]",glucose blood levels in OGTT compared to untreated animals [1],fasting glucose levels [2],effective doses to cause decreases in blood glucose [4] [mg/kg],further results
COc1ccc(Cl)cc1C(=O)NCCc1ccc(S(=O)(=O)NC(=O)NC2CCCCC2)cc1 [glibenclamide],"62,022","67,311","50,874",ranked second,downward trend,–,–
C[C@H]1O[C@H](O[C@H]2[C@H](O)[C@@H](O)[C@@H](O[C@H]3[C@H](O)[C@@H](O)C(O)O[C@@H]3CO)O[C@@H]2CO)[C@H](O)[C@@H](O)[C@@H]1N[C@H]1C=C(CO)[C@@H](O)[C@H](O)[C@H]1O (stereo partly shown) [acarbose],"81,327","81,507","71,240",–,downward trend,75 to 300,"Inhibition type (α-glucosidase) ([3]; Lineweaver-Burk plots): competitive; Ki ([3]; substrate pNPG, Lineweaver-Burk): 26.8 µM"
"CC1(C)[C@@H](O[C@H]2O[C@H](C(=O)O)[C@@H](O)[C@H](O)[C@H]2O[C@@H]2O[C@H](C(=O)O)[C@@H](O)[C@H](O)[C@H]2O)CC[C@]2(C)[C@H]3C(=O)C=C4[C@@H]5C[C@@](C)(C(=O)O)CC[C@]5(C)CC[C@@]4(C)[C@]3(C)CC[C@@H]12 [GL, glycyrrhizic acid]",–,–,–,–,–,–,dose considered safe (humans): less than 100 mg/day
"CCc1ccc(CCOc2ccc(CC3SC(=O)NC3=O)cc2)nc1 (stereo not shown) [PIO, pioglitazone]","49,677","43,584","40,044",significantly improved,–,15 to 45,effectiveness in lowering blood glucose during the glucose tolerance curve (AUC) ([1]; week 7): most effective; animal weight compared to the untreated group (T2D) [5]: difference in weight
"CC1(C)[C@@H](O)CC[C@]2(C)[C@H]3C(=O)C=C4[C@@H]5C[C@@](C)(C(=O)O)CC[C@]5(C)CC[C@@]4(C)[C@]3(C)CC[C@@H]12 [GA, glycyrrhetinic acid]",–,–,–,–,–,–,"CC50 at 48 h [6]: 62 ± 2 µM; LD50 [7]: 610 mg/kg; insulin levels ([8]; 100 mg/kg): increase in insulin levels; plasma TAG, total cholesterol, HDL, VLDL, LDL ([8]; 100 mg/kg): restored normal levels; blood glucose and insulin levels ([8]; oral 100 mg/kg, compared with glibenclamide 600 μg/kg): improved blood glucose and insulin levels"
